Biological target: T1, α1 and β1 subunits of guanylate cyclase (sGC), expressed in Sf9 cells (Homo sapiens, UniProt Q02108+Q02153)
T1 construct: made in house; host or cells: Sf9 insect cells (baculovirus co-infection); high-speed supernatant used unpurified
T1 sequence (Q02108 1-690): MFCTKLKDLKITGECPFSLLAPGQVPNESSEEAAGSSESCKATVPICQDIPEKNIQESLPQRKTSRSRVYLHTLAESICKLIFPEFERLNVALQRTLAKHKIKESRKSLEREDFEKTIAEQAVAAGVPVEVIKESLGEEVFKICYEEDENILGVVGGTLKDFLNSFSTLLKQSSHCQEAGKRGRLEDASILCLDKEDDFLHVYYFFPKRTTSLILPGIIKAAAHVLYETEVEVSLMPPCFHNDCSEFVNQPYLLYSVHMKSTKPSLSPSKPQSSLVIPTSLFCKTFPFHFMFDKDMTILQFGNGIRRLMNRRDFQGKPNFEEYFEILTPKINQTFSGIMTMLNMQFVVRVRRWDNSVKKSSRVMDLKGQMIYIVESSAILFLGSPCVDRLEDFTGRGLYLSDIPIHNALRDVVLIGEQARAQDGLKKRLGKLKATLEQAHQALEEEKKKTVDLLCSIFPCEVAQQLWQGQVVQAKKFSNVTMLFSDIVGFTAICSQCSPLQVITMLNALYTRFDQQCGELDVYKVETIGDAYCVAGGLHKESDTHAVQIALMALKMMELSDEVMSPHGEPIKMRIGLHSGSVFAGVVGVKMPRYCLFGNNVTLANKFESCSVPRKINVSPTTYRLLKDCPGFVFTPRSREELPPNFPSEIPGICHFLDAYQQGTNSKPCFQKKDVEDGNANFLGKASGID
T1 sequence (Q02153 1-619): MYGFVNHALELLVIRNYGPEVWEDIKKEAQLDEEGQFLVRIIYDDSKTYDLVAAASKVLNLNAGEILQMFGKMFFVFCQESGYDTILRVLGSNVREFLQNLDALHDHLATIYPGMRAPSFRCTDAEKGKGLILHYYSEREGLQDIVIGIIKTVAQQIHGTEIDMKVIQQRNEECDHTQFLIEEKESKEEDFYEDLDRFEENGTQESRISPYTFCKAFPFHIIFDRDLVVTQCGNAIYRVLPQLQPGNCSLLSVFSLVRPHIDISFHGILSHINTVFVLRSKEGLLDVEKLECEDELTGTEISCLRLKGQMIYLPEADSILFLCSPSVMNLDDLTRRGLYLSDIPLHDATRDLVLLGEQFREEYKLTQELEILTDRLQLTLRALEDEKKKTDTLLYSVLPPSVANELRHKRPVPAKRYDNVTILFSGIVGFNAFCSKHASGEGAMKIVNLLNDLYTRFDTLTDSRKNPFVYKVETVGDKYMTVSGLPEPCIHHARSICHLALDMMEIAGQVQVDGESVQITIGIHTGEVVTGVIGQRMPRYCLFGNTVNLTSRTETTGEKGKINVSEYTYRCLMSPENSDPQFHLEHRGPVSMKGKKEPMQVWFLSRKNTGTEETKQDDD
Assay: Guanylate Cyclase Assay (formation of cyclic GMP from GTP)
Format: biochemical
Conditions: for Mean efficacy at 100 μM with 1 μM of SNP, [% of YC-1]: compound at 100 μM with 1 μM sodium nitroprusside (SNP), normalized to 100 μM YC-1 (without SNP) as 100%; for Emax at 100 µM: compound at 100 μM without SNP, normalized to activity of 100 μM YC-1 (without SNP) as 100%, read-out: Mean basal efficacy at 100 μM, [% of YC-1]; for Mean activation at 100 μM: (activity at 100 μM with 1 μM SNP − activity at 100 μM)/(activity of SNP at 1 μM − basal activity of sGC)
Experimental: Sf9 cells were cultured in Sf-90011 medium supplemented with 10% (v/v) fetal calf serum at 28° C. to give a count of 6×10^5 cells/ml. The cells were then infected with a mixture of the virus stocks for the α1 and β1 subunits of guanylate cyclase at a multiplicity of infection of 0.1 pfu/cell. The cells were harvested 72 hours after infection and were pelleted by centrifugation. The resulting cell pellets were homogenized with Polytron homogenizer in 3 volumes of 20 mM Tris-HCl (pH 7.6) containing 1 mM EDTA, 5 mM dithiothreitol, 90 mM NaCl, 10% glycerol, and protease inhibitors mix (Roche Molecular Biochemicals). The homogenate was centrifuged at 50,000×g for 60 minutes and the supernatant was aliquotted and stored at −80° C.
Compounds of the present invention were dissolved in DMSO to make 100 mM and saved as stocks at −20° C. When compounds were tested, 10-fold concentrated solutions with 10% DMSO were prepared. 10 μl of 10-fold concentrated compound solutions were added to the reaction mixture total of 100 μl.
Guanylate cyclase activity was measured by the formation of cyclic GMP from GTP in a total volume of 100 μl. Guanylate cyclase-expressed Sf9 cell high-speed supernatant (Sf9 high-speed sup) was used as an enzyme source for the assay. The reaction mixture containing 0.1 μl enzyme of Sf9 high-speed sup, compound solution, 50 mM Tris-HCl (pH 7.6), 4 mM MgCl2, 0.5 mM IBMX, 15 mM creatine phosphate, 20 μg creatine phosphokinase, 0.1% BSA and 1 mM GTP were incubated at 37° C. for 15 minutes. After the reaction, 0.9 ml of 50 mM sodium acetate buffer (pH 5.8) was added followed by boiling for 3 minutes to stop the reaction. The solution was centrifuged at 3000 rpm for 15 minutes at room temperature and cyclic GMP in 20 μl of the resulting supernatant was measured according to the protocol of Amersham cyclic GMP enzymeimmunoassay system (Amersham, RPN 226).
Compounds of the present invention were tested at 100 μM with and without 1 μM of sodium nitroprusside (SNP). YC-1 was included as a standard for each assay. The data was normalized with the activity of 100 μM YC-1 (without SNP) as 100%. Mean basal efficacy, in Table 1, was expressed as a percentage of 100 μM YC-1 (without SNP).
The mean activation, in Table 1, was calculated based on the formula: (activity of compound of the present invention at 100 μM with 1 μM SNP)−(activity of compound of on at 100 μM)/(activity of SNP at 1 μM)−(basal activity of sGC).

Mean efficacy at 100 μM with 1 μM of SNP, [% of YC-1] | Emax at 100 µM [%] | Mean activation at 100 μM | SMILES
38 % of YC-1 | 9 | – | OCc1ccc(Oc2nn(Cc3ccccc3)c3ccccc23)o1 [Example 1, {5-[(1-benzyl-1H-indazol-3-yl)oxy]-2-furyl}methanol]
65 % of YC-1 | 4 | 1.7 | CN(C)CCCNC(=O)c1ccc(Oc2nn(Cc3ccccc3)c3ccccc23)o1 [Example 5, 5-[(1-benzyl-1H-indazol-3-yl)oxy]-N-[3-(dimethylamino)propyl]-2-furamide]
25 % of YC-1 | 3 | 3.1 | CCCC(CO)NC(=O)c1ccc(Oc2nn(Cc3ccccc3)c3ccccc23)o1 (centres unmarked) [Example 7, 5-[(1-benzyl-1H-indazol-3-yl)oxy]-N-[1-(hydroxymethyl)butyl]-2-furamide]
9 % of YC-1 | 0 | 1.5 | CC(CCCC(C)(C)O)NC(=O)c1ccc(Oc2nn(Cc3ccccc3)c3ccccc23)o1 (centres unmarked) [Example 8, 5-[(1-benzyl-1H-indazol-3-yl)oxy]-N-(5-hydroxy-1,5-dimethylhexyl)-2-furamide]
13 % of YC-1 | 0 | 1.6 | O=C(NCC(O)c1ccccc1)c1ccc(Oc2nn(Cc3ccccc3)c3ccccc23)o1 (centres unmarked) [Example 9, 5-[(1-benzyl-1H-indazol-3-yl)oxy]-N-(2-hydroxy-2-phenylethyl)-2-furamide]
11 % of YC-1 | 1 | 2.0 | O=C(NCCN1CCOCC1)c1ccc(Oc2nn(Cc3ccccc3)c3ccccc23)o1 [Example 10, 5-[(1-benzyl-1H-indazol-3-yl)oxy]-N-[2-(4-morpholinyl)ethyl]-2-furamide]
70 % of YC-1 | 9 | 2.8 | c1ccc(Cn2nc(Oc3ccccn3)c3ccccc32)cc1 [Example 11, 1-benzyl-3-(2-pyridinyloxy)-1H-indazole]
43 % of YC-1 | -1 | 2.6 | c1ccc(Cn2nc(Oc3ncccn3)c3ccccc32)cc1 [Example 12, 1-benzyl-3-(2-pyrimidinyloxy)-1H-indazole]
15 % of YC-1 | 3 | 1.4 | FC(F)(F)c1cncc(Oc2nn(Cc3ccccc3)c3ccccc23)c1 [Example 13, 1-benzyl-3-{[5-(trifluoromethyl)-3-pyridinyl]oxy}-1H-indazole]
23 % of YC-1 | 0 | 1.8 | NC(=O)c1cccnc1Oc1nn(Cc2ccccc2)c2ccccc12 [Example 14, 2-[(1-benzyl-1H-indazol-3-yl)oxy]nicotinamide]
47 % of YC-1 | 4 | 2.6 | O=C(O)c1ccccc1Oc1nn(Cc2ccccc2)c2ccccc12 [Example 15, 2-[(1-benzyl-1H-indazol-3-yl)oxy]benzoic acid]
15 % of YC-1 | 6 | 1.9 | CN(C)CCNC(=O)c1ccccc1Oc1nn(Cc2ccccc2)c2ccccc12 [Example 16, 2-[(1-benzyl-1H-indazol-3-yl)oxy]-N-[2-(dimethylamino)ethyl]benzamide]
14 % of YC-1 | 4 | 2.0 | CN(C)CCCN1CCN(C(=O)c2ccccc2Oc2nn(Cc3ccccc3)c3ccccc23)CC1 [Example 17, N-[3-(4-{2-[(1-benzyl-1H-indazol-3-yl)oxy]benzoyl}-1-piperazinyl)propyl]-N,N-dimethylamine]
10 % of YC-1 | 5 | 1.5 | CN(C)CCCNC(=O)c1ccccc1Oc1nn(Cc2ccccc2)c2ccccc12 [Example 18, 2-[(1-benzyl-1H-indazol-3-yl)oxy]-N-[3-(dimethylamino)propyl]benzamide]
12 % of YC-1 | 3 | 1.9 | O=C(NC1CCC(O)CC1)c1ccccc1Oc1nn(Cc2ccccc2)c2ccccc12 (centres unmarked) [Example 19, 2-[(1-benzyl-1H-indazol-3-yl)oxy]-N-(4-hydroxycyclohexyl)benzamide]
11 % of YC-1 | 6 | 1.5 | O=C(N[C@H]1Cc2ccccc2[C@H]1O)c1ccccc1Oc1nn(Cc2ccccc2)c2ccccc12 [Example 20, 2-[(1-benzyl-1H-indazol-3-yl)oxy]-N-[(1R,2S)-1-hydroxy-2,3-dihydro-1H-inden-2-yl]benzamide]
15 % of YC-1 | 5 | 1.9 | CCCC(CO)NC(=O)c1ccccc1Oc1nn(Cc2ccccc2)c2ccccc12 (centres unmarked) [Example 21, 2-[(1-benzyl-1H-indazol-3-yl)oxy]-N-[1-(hydroxymethyl)butyl]benzamide]
13 % of YC-1 | 2 | 2.1 | O=C(NCC(O)c1ccccc1)c1ccccc1Oc1nn(Cc2ccccc2)c2ccccc12 (centres unmarked) [Example 22, 2-[(1-benzyl-1H-indazol-3-yl)oxy]-N-(2-hydroxy-2-phenylethyl)benzamide]
15 % of YC-1 | 3 | 2.2 | CN1CCCC1CCNC(=O)c1ccccc1Oc1nn(Cc2ccccc2)c2ccccc12 (centres unmarked) [Example 23, 2-[(1-benzyl-1H-indazol-3-yl)oxy]-N-[2-(1-methyl-2-pyrrolidinyl)ethyl]benzamide]

— patent US20040048866A1 (priority 2002, published 2004)
